What was measured:
[1] = target: T1, Alpha-2C adrenergic receptor (Homo sapiens, UniProt P18825); format: functional
T1 sequence (P18825 whole entry): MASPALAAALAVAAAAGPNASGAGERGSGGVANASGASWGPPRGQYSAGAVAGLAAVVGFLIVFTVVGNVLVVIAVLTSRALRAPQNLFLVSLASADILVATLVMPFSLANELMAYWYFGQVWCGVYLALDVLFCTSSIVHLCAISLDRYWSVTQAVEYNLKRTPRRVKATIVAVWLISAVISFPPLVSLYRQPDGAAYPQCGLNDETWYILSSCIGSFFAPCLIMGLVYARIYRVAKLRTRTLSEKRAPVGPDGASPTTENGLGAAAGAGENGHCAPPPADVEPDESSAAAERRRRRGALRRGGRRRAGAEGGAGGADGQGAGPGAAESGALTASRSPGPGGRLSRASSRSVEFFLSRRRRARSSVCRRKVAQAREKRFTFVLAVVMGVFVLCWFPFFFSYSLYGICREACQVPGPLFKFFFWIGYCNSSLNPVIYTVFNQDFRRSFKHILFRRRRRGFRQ

Vasopressin V2 receptor = Vasopressin V2 receptor (Homo sapiens, UniProt P30518)
Sequence of Vasopressin V2 receptor (P30518 whole entry): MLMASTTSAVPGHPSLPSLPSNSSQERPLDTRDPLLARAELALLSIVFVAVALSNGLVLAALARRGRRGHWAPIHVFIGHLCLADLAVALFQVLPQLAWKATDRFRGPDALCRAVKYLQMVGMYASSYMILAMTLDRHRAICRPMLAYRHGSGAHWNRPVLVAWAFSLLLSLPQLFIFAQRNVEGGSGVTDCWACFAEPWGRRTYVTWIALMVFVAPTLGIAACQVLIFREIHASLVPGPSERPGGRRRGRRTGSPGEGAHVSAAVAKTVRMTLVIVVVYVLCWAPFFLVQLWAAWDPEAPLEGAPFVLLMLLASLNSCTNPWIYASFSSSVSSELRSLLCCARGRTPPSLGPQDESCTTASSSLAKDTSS

[2] = target: Voltage-dependent L-type calcium channel subunit alpha-1C (Rattus norvegicus, UniProt P22002); format: functional
Sequence of Voltage-dependent L-type calcium channel subunit alpha-1C (P22002 whole entry): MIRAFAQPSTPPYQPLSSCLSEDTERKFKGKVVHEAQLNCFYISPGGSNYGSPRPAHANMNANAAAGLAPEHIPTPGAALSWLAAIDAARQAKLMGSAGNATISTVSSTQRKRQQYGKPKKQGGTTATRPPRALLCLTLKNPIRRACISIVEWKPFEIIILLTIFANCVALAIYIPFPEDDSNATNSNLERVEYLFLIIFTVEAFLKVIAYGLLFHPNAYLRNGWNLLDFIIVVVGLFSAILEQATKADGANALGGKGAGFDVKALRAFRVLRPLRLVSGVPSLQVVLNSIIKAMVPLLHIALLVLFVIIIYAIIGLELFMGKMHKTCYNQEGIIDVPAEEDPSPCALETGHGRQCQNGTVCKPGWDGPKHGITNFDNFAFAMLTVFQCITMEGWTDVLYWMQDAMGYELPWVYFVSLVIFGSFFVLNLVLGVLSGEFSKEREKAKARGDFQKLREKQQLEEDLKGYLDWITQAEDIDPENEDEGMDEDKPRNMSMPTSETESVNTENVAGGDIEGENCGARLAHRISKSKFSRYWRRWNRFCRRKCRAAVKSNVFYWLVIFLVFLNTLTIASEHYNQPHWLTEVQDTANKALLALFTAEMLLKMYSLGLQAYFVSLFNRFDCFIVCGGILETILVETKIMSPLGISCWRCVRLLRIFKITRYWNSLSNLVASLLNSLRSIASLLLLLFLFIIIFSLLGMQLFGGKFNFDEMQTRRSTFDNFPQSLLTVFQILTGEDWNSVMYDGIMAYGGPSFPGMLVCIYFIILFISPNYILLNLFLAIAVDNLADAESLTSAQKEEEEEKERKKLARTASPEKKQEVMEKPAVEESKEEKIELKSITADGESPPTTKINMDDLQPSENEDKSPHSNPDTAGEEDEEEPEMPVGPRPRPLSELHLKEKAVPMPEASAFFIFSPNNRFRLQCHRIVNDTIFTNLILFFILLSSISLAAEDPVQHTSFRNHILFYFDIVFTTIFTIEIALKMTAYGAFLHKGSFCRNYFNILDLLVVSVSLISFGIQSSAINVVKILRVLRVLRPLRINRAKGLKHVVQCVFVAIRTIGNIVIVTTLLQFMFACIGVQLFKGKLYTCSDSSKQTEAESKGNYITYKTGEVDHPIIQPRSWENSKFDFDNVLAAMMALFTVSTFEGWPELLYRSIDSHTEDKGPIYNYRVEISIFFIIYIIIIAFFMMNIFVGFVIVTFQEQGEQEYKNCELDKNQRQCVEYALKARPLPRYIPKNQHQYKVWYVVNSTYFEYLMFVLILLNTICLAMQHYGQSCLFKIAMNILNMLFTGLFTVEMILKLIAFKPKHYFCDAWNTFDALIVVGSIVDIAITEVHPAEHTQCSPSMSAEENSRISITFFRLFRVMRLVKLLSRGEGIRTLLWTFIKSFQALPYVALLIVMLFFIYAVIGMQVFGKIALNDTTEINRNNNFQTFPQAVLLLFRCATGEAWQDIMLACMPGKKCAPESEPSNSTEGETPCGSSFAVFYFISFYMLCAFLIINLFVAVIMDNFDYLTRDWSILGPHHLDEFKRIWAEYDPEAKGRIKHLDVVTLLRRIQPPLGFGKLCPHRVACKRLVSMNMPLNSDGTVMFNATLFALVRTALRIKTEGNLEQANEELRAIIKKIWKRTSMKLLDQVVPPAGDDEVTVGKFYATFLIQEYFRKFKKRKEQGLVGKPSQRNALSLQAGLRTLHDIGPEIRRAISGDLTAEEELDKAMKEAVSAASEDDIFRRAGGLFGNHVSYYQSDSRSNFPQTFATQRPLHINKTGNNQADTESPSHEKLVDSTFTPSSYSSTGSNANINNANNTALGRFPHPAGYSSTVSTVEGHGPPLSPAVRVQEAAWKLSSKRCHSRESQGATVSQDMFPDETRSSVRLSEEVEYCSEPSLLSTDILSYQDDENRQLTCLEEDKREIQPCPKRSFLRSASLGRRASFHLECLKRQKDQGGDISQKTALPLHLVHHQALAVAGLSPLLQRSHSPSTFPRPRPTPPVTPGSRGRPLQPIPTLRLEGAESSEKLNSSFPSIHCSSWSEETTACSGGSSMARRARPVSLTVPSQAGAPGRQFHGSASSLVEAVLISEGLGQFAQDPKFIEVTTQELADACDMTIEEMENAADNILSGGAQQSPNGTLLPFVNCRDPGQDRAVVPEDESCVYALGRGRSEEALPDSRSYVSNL

[3] = target: T2, Muscarinic acetylcholine receptor M1 (Homo sapiens, UniProt P11229); format: functional
T2 sequence (P11229 whole entry): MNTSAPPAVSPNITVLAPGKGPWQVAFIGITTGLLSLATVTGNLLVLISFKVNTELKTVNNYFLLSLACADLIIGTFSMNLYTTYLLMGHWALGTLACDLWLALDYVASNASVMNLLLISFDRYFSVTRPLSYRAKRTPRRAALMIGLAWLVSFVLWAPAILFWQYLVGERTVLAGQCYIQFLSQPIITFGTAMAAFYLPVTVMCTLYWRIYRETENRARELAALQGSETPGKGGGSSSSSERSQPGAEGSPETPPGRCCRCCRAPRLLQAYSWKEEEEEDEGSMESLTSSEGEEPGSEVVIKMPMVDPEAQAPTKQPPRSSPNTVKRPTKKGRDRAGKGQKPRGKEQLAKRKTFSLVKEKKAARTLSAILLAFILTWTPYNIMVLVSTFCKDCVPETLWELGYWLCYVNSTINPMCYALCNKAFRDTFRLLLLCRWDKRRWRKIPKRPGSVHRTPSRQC

[4] = target: T3, Muscarinic acetylcholine receptor M2 (Homo sapiens, UniProt P08172); format: functional, cell-based
T3 sequence (P08172 whole entry): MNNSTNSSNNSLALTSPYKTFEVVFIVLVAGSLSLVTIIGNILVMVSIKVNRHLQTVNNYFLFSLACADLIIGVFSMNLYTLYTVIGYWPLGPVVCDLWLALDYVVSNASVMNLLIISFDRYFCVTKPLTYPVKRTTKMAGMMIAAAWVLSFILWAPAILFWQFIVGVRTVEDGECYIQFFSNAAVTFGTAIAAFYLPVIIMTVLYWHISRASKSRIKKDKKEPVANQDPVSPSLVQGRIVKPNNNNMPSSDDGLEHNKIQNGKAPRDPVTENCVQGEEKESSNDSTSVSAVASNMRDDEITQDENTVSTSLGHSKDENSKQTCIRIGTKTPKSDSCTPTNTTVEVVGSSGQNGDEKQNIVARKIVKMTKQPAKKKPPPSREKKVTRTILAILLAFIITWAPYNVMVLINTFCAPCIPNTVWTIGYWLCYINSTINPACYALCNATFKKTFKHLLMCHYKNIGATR

D(1A) dopamine receptor = D(1A) dopamine receptor (Homo sapiens, UniProt P21728); format: functional, cell-based
Sequence of D(1A) dopamine receptor (P21728 whole entry): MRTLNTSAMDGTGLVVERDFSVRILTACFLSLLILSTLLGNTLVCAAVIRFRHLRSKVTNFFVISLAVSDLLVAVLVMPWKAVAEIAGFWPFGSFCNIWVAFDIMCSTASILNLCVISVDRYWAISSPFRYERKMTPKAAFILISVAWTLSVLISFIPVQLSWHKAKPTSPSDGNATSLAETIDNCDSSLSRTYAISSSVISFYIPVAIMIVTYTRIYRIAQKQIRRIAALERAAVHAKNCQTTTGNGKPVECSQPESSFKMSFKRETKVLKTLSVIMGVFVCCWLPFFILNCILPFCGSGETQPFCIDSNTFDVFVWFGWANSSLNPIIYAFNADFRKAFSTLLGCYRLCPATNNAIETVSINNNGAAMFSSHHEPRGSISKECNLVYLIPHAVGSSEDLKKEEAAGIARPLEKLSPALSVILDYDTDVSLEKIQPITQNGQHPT

[5] = target: T4, 5-hydroxytryptamine receptor 1A (Homo sapiens, UniProt P08908); format: functional, cell-based
T4 sequence (P08908 whole entry): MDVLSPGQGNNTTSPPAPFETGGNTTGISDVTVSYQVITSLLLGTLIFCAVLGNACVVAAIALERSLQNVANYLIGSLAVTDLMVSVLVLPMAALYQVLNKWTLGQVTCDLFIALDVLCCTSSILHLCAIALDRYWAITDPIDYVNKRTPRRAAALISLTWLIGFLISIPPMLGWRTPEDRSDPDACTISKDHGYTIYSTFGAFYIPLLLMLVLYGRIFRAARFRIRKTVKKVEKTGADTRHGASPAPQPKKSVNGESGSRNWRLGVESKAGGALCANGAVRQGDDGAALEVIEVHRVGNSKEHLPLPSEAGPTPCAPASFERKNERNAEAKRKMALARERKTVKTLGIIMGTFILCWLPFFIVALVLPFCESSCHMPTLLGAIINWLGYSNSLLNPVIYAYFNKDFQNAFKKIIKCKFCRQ

Histamine H3 receptor = Histamine H3 receptor (Homo sapiens, UniProt Q9Y5N1)
Sequence of Histamine H3 receptor (Q9Y5N1 whole entry): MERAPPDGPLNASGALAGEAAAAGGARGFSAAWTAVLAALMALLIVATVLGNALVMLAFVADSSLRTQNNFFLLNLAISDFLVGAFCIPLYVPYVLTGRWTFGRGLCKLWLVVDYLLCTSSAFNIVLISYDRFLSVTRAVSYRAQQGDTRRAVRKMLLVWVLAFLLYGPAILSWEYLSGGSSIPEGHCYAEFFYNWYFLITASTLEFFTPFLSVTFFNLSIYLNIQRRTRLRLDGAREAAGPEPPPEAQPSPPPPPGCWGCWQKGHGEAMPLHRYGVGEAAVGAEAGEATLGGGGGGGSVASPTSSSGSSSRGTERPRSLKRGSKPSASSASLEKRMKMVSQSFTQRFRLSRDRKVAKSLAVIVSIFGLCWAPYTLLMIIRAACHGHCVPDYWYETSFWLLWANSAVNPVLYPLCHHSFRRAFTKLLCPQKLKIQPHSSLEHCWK

Progesterone receptor = target: T5, Progesterone receptor (Homo sapiens, UniProt P06401); format: functional
T5 sequence (P06401 whole entry): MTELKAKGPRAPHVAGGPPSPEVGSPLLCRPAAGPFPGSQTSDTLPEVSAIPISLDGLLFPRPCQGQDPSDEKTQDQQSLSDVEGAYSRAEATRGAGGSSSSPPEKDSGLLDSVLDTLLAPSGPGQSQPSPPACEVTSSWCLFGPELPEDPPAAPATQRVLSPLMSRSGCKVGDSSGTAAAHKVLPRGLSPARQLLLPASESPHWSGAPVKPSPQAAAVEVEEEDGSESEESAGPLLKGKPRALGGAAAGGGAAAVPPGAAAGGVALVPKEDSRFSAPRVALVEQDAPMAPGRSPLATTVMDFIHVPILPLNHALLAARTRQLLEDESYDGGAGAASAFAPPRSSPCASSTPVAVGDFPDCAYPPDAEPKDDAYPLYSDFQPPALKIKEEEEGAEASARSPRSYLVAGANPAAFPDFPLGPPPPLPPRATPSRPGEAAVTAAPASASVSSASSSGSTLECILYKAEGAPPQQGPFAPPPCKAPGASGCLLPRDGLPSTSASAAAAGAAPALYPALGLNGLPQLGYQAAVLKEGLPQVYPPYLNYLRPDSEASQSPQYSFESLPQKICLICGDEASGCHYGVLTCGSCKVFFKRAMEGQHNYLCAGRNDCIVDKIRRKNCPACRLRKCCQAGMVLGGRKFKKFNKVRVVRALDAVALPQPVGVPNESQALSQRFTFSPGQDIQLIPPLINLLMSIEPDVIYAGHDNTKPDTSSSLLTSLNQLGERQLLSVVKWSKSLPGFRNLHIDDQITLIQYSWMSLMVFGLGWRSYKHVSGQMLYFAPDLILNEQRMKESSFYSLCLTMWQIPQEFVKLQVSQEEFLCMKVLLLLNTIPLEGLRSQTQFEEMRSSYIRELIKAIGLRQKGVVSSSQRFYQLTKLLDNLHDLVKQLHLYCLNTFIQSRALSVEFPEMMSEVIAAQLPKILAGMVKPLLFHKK
Note: assay procedure not described here.

Row | SMILES | AC50 [1] | AC50 (Vasopressin V2 receptor) | AC50 [2] | AC50 [3] | AC50 [4] | AC50 (D(1A) dopamine receptor) | AC50 [5] | AC50 (Histamine H3 receptor) | AC50 (Progesterone receptor)
1 | CN1CC(=O)N2[C@H](c3ccc4c(c3)OCO4)c3[nH]c4ccccc4c3C[C@@H]2C1=O | > 10 µM | > 30 µM | > 10 µM | > 10 µM | > 10 µM | > 10 µM | > 10 µM | > 10 µM | 
2 | Nc1ncnc2c1ncn2[C@@H]1O[C@H](COP(=O)(O)O)[C@@H](O)[C@H]1O [ADENOSINE PHOSPHATE] | > 30 µM | > 30 µM |  | > 30 µM | > 30 µM | > 30 µM |  | > 30 µM | > 30 µM
3 | COc1ccc2cccc(CCNC(C)=O)c2c1 [AGOMELATINE] | > 10 µM | > 30 µM | > 10 µM | > 10 µM | > 30 µM | > 10 µM | > 10 µM | > 10 µM | 
4 | CCCC(CCC)C(=O)O[C@H]1C[C@H]2CC[C@@H](C1)[N+]2(C)C [ANISOTROPINE] | > 30 µM | > 30 µM |  | 0.17 µM | 0.63 µM | > 30 µM |  | > 30 µM | > 30 µM
5 | CN1CCc2cccc3c2[C@H]1Cc1ccc(O)c(O)c1-3 [APOMORPHINE] | 3.2 µM | > 30 µM | > 10 µM | > 30 µM | > 10 µM |  |  | > 10 µM | 
6 | NC(CO)C(=O)NNCc1ccc(O)c(O)c1O (configuration not stated) [BENSERAZIDE] | > 10 µM | > 30 µM | > 10 µM | > 10 µM | > 10 µM | > 10 µM | > 10 µM | > 10 µM | 
7 | CN(C)C(=O)OC1N=C(c2ccccc2)c2cc(Cl)ccc2N(C)C1=O (configuration not stated) [CAMAZEPAM] | > 10 µM | > 30 µM | > 10 µM | > 10 µM | > 10 µM | > 10 µM | > 10 µM | > 10 µM | 
8 | CCOC(=O)[C@H](CCc1ccccc1)N[C@H]1CCCN2CCC[C@@H](C(=O)O)N2C1=O [CILAZAPRIL] | > 30 µM | > 30 µM | > 30 µM | > 30 µM | > 30 µM | > 30 µM |  | > 30 µM | > 30 µM
9 | CCOc1cc(N)c([N+](=O)[O-])cc1C(=O)NC1CCN(CC2CC=CCC2)CC1 (configuration not stated) [CINITAPRIDE] | 1.3 µM | > 30 µM | > 30 µM | 14 µM | > 30 µM | > 30 µM |  | 5.9 µM | > 30 µM
10 | [H]/N=C(/N)c1ccc(NCc2nc3cc(C(=O)N(CCC(=O)O)c4ccccn4)ccc3n2C)cc1 [DABIGATRAN] | > 30 µM | > 30 µM |  | > 30 µM | > 30 µM | > 30 µM |  | > 30 µM | > 30 µM
11 | CCCCCCCCCCCC[N+](C)(C)CCOc1ccccc1 [DOMIPHEN] | 4.2 µM | 7.3 µM | > 30 µM | 8.9 µM |  | > 30 µM |  | 12 µM | > 30 µM
12 | CN[C@@H](C)[C@H](O)c1ccccc1 [EPHEDRINE] | > 10 µM | > 30 µM | > 10 µM | > 10 µM | > 10 µM | > 10 µM | > 10 µM | > 10 µM | 
13 | CC/C=C\C/C=C\C/C=C\CCCCCCCC(=O)O [LINOLENIC ACID] | > 30 µM | > 30 µM |  | > 30 µM | > 30 µM | > 30 µM |  | > 30 µM | 
14 | Cc1cc(-c2ccccc2)nnc1NCCN1CCOCC1 [MINAPRINE] | > 10 µM | > 30 µM | > 10 µM | > 10 µM | > 10 µM | > 10 µM | > 10 µM | > 10 µM | 
15 | CCCCCCCCOc1ccccc1C(=O)Nc1ccc(C(=O)OCC[N+](C)(CC)CC)cc1 [OTILONIUM BROMIDE] | 8.2 µM | 9.9 µM | 16 µM | 1.3 µM |  | > 30 µM |  | 17 µM | > 30 µM
16 | O=C(O)CCCc1ccccc1 [PHENYLBUTANOIC ACID] | > 30 µM | > 30 µM | > 30 µM | > 30 µM | > 30 µM |  | > 10 µM | > 10 µM | 
17 | CC(Cc1ccccc1)NCCC(c1ccccc1)c1ccccc1 (configuration not stated) [PRENYLAMINE] | 2.3 µM | > 30 µM | 4.28 µM | > 10 µM | > 10 µM | > 30 µM |  | > 10 µM | 
18 | C1COC(NC(C2CC2)C2CC2)=N1 [RILMENIDINE] | 6.8 µM | > 30 µM | > 10 µM | > 10 µM | > 10 µM | > 10 µM | > 30 µM | > 10 µM | 
19 | O=C1NCCN1CCN1CCC(c2cn(-c3ccc(F)cc3)c3ccc(Cl)cc23)CC1 [SERTINDOLE] |  | 27 µM | > 30 µM | 5 µM | > 10 µM | > 30 µM |  | > 30 µM | > 30 µM
20 | Cc1c(C(=O)Nc2ccc(N3C[C@@H](C)O[C@@H](C)C3)nc2)cccc1-c1ccc(OC(F)(F)F)cc1 [SONIDEGIB] | > 10 µM | > 30 µM | > 10 µM | > 10 µM |  |  |  | > 10 µM | 
21 | COc1ccc(C(=O)N2CCN(c3ccc4c(c3)CCC(=O)N4)CC2)cc1OC [VESNARINONE] | > 30 µM | > 30 µM |  | > 30 µM | > 30 µM | > 30 µM |  | > 30 µM | 12 µM
